Laboratory results reported in the OligoGym collection.
These antisense oligonucleotides have a phosphorothioate backbone; sugars and methylation of C are not fully specified.

Experiments:
Settings in all cases: ASO
[1] = molecular target: MAP2K4
[2] = molecular target: RIPK1
[3] = molecular target: FADD
[4] = molecular target: SMAD4
Note: test concentration or dose not given here.

Sequence: TGTGTCCTTCCAGGATTTGG
- remaining target (mRNA or protein) (fraction of control) [1]: 0.7

Sequence: AAGGATGCACGTTCTAGGTG
- remaining target (mRNA or protein) (fraction of control) [1]: 0.55

Sequence: CCACTTCCCTCAGCTCAT
- remaining target (mRNA or protein) (fraction of control) [2]: ≥ 1

Sequence: TGTCCAGTTCTGCACTCT
- remaining target (mRNA or protein) (fraction of control) [2]: 0.81

Sequence: GCTGGGCTACCTTCCTGG
- remaining target (mRNA or protein) (fraction of control) [3]: ≥ 1

Sequence: ACATCTGGCCTGTTCCCA
- remaining target (mRNA or protein) (fraction of control) [2]: 0.56

Sequence: CACACAGGTCTTCTTCCC
- remaining target (mRNA or protein) (fraction of control) [3]: ≥ 1

Sequence: CAGTCTCTCTATGTGTGGGT
- remaining target (mRNA or protein) (fraction of control) [1]: 0.69

Sequence: GGTTAGTTCTGGCTGACG
- remaining target (mRNA or protein) (fraction of control) [2]: ≥ 1

Sequence: CAATGGCTTCTGTCCTGT
- remaining target (mRNA or protein) (fraction of control) [4]: ≥ 1

Sequence: CCCTATCAGTGAGGACAG
- remaining target (mRNA or protein) (fraction of control) [2]: ≥ 1

Sequence: TATCAAAGATAGCTTGGT
- remaining target (mRNA or protein) (fraction of control) [2]: ≥ 1

Sequence: CTCCAGCTTGCGCTTGAC
- remaining target (mRNA or protein) (fraction of control) [3]: 0.78

Sequence: GTGCATCAGGTTGCCCTT
- remaining target (mRNA or protein) (fraction of control) [2]: ≥ 1

Sequence: AACATCACCTTCACCTTT
- remaining target (mRNA or protein) (fraction of control) [4]: 0.45

Sequence: GATGCTGTCGATCTTGGT
- remaining target (mRNA or protein) (fraction of control) [3]: 0.91

Sequence: GGAGACACAGCAATACGTGC
- remaining target (mRNA or protein) (fraction of control) [1]: 0.61

Sequence: TTTGATACAAAACAGTAA
- remaining target (mRNA or protein) (fraction of control) [3]: 0.42

Sequence: GACCCATCCCAAGTCCCT
- remaining target (mRNA or protein) (fraction of control) [2]: ≥ 1

Sequence: GTGTTTCTTTGATGCTCT
- remaining target (mRNA or protein) (fraction of control) [4]: ≥ 1

Sequence: ATCCTTTGGAAACAGTGA
- remaining target (mRNA or protein) (fraction of control) [4]: ≥ 1

Sequence: CAACTTCAGTGCTTTGCGTT
- remaining target (mRNA or protein) (fraction of control) [1]: 0.42

Sequence: GGCAGCAAACACATTTTC
- remaining target (mRNA or protein) (fraction of control) [4]: ≥ 1

Sequence: TTGGGAAAGTTGGCAGTG
- remaining target (mRNA or protein) (fraction of control) [4]: ≥ 1

Sequence: CTGTATGGTAACACATTT
- remaining target (mRNA or protein) (fraction of control) [4]: ≥ 1

Sequence: TGGATGAAAGATTACAAT
- remaining target (mRNA or protein) (fraction of control) [4]: ≥ 1

Sequence: GCTGTGCAAGCTCTTCTCAC
- remaining target (mRNA or protein) (fraction of control) [1]: 0.63

Sequence: GCCACATTCTGTCTGGGC
- remaining target (mRNA or protein) (fraction of control) [2]: 0.72

Sequence: ACCTTTCCCTATGAATGA
- remaining target (mRNA or protein) (fraction of control) [4]: 0.65

Sequence: CACCTTCTTTGACAAGTGGC
- remaining target (mRNA or protein) (fraction of control) [1]: 0.42

Sequence: GAATTTCAATCCAGCAAG
- remaining target (mRNA or protein) (fraction of control) [4]: ≥ 1

Sequence: CCATGTAGTAGAGGGTGC
- remaining target (mRNA or protein) (fraction of control) [2]: ≥ 1

Sequence: TTCACAAAACTCATCCTG
- remaining target (mRNA or protein) (fraction of control) [4]: ≥ 1

Sequence: ATGGGAGAGCTGGGAGTAGC
- remaining target (mRNA or protein) (fraction of control) [1]: ≥ 1

Sequence: GAGCCGCCGCCGCCGCTCGG
- remaining target (mRNA or protein) (fraction of control) [1]: ≥ 1

Sequence: GCCCCTACTTAGCAGTCT
- remaining target (mRNA or protein) (fraction of control) [3]: 0.65

Sequence: TTGTGTATCACGCCTTTT
- remaining target (mRNA or protein) (fraction of control) [2]: ≥ 1

Sequence: CTTCGCTCCGATTCCTGG
- remaining target (mRNA or protein) (fraction of control) [3]: ≥ 1

Sequence: TAGGTAGAGTGACGCTGC
- remaining target (mRNA or protein) (fraction of control) [4]: ≥ 1

Sequence: TCTGTCTAAGTAGTAACT
- remaining target (mRNA or protein) (fraction of control) [4]: ≥ 1

Sequence: TTTGATGCTCTGTCTTGG
- remaining target (mRNA or protein) (fraction of control) [4]: ≥ 1

Sequence: AAATTTGGCTGAGCACATCG
- remaining target (mRNA or protein) (fraction of control) [1]: 0.53

Sequence: TGACGCTGCTTTTAGTGT
- remaining target (mRNA or protein) (fraction of control) [4]: ≥ 1

Sequence: TGACAAGTTCTGAAGAGG
- remaining target (mRNA or protein) (fraction of control) [4]: ≥ 1

Sequence: CATAGGCGGGTGGTGCTG
- remaining target (mRNA or protein) (fraction of control) [4]: ≥ 1

Sequence: TTTGTTTTAATAAAGATACA
- remaining target (mRNA or protein) (fraction of control) [1]: 0.88

Sequence: CAGTAAATCCATTCTGCT
- remaining target (mRNA or protein) (fraction of control) [4]: ≥ 1

Sequence: AAGATACGAGATCCCGCT
- remaining target (mRNA or protein) (fraction of control) [3]: 0.64

Sequence: CAGTAACAATAGGGCAGC
- remaining target (mRNA or protein) (fraction of control) [4]: ≥ 1

Sequence: GATTTTGCCTAAAATTTCTT
- remaining target (mRNA or protein) (fraction of control) [1]: ≥ 1

Sequence: TGAAGCCTCCCATCCAAT
- remaining target (mRNA or protein) (fraction of control) [4]: 0.9

Sequence: GCCAGCCTTCTCCAATCT
- remaining target (mRNA or protein) (fraction of control) [3]: 0.62

Sequence: GAGTAAACCTTGCTGTAGAT
- remaining target (mRNA or protein) (fraction of control) [1]: 0.73

Sequence: GTGAAATCCCAGTGTTGTTC
- remaining target (mRNA or protein) (fraction of control) [1]: 0.91

Sequence: CCCCGCCTCGAAGTCGTC
- remaining target (mRNA or protein) (fraction of control) [3]: 0.82

Sequence: TGATGTAGCAGCGATATCAA
- remaining target (mRNA or protein) (fraction of control) [1]: 0.72

Sequence: TACAACTCGTTCGTAGTG
- remaining target (mRNA or protein) (fraction of control) [4]: ≥ 1

Sequence: GAGATAATCACTTTTGAATT
- remaining target (mRNA or protein) (fraction of control) [1]: ≥ 1

Sequence: CGCAGCTTGAGTTCAGAA
- remaining target (mRNA or protein) (fraction of control) [3]: 0.65

Sequence: ACAGAAGAATACAACTAC
- remaining target (mRNA or protein) (fraction of control) [4]: ≥ 1

Sequence: ATATTTCCACTTCTGTCCAG
- remaining target (mRNA or protein) (fraction of control) [1]: 0.67

Sequence: CACTACTCCGCATTACTACA
- remaining target (mRNA or protein) (fraction of control) [1]: 0.56

Sequence: GACAGGCTGGACGACACC
- remaining target (mRNA or protein) (fraction of control) [3]: 0.62

Sequence: CACACAATAGAACGGTCAGA
- remaining target (mRNA or protein) (fraction of control) [1]: 0.9

Sequence: ACTCTCTCCACCTTGTCT
- remaining target (mRNA or protein) (fraction of control) [4]: 0.57

Sequence: GTAGTCCACCATCCTGAT
- remaining target (mRNA or protein) (fraction of control) [4]: ≥ 1

Sequence: GAATGAAGGAAAAGAAAT
- remaining target (mRNA or protein) (fraction of control) [4]: ≥ 1

Sequence: TATTTTAATGTTCACCTCTT
- remaining target (mRNA or protein) (fraction of control) [1]: ≥ 1

Sequence: GCTCGCTGCTCGACAGGC
- remaining target (mRNA or protein) (fraction of control) [3]: 0.74

Sequence: GGTTCCAACTTTCCAACT
- remaining target (mRNA or protein) (fraction of control) [3]: 0.97
